Test results as given in patent US5317103A, “Indole-substituted five-membered heteroaromatic compounds as 5-HT1 agonists” (Merck Sharp & Dohme Limited, priority 1992, dated 1994).

Target: T1, 5-HT1 -like receptor (Oryctolagus cuniculus, UniProt P49144)
T1 construct: contraction of the saphenous vein of New Zealand White rabbits; from tissue; host or cells: saphenous vein of New Zealand White rabbits
Test: agonist-mediated contraction of the saphenous vein of New Zealand White rabbits
Assay type: cell-based
Conditions: not given
Description: The activity of test compounds as agonists of the 5-HT1 -like receptor was measured in terms of their ability to mediate contraction of the saphenous vein of New Zealand White rabbits, using the procedure described in Arch. Pharm., 1990, 342, 111. Agonist potencies were calculated as -log10 EC50 (pEC50) values, from plots of percentage 5-HT (1 μm) response against the concentration of the agonist.

T1 sequence (P49144 whole entry): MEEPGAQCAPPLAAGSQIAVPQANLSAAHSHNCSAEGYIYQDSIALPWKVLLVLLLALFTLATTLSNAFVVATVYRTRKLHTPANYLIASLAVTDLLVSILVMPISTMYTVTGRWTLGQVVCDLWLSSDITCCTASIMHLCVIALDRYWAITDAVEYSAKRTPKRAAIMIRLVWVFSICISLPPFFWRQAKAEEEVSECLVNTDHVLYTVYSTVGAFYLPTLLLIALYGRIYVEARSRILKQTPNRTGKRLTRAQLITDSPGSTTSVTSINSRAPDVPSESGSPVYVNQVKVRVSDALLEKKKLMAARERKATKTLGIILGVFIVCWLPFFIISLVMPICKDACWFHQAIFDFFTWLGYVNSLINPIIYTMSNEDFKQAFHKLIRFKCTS

| Structure (SMILES) | EC50 [µM] |
| --- | --- |
| CN(C)CCc1c[nH]c2ccc(-c3nc(N)no3)cc12 [Example 49, N,N-Dimethyl-2-[5-(5-(3-amino-1,2,4-oxadiazol)yl)-1H-indol-3yl]ethylamine] | ≤ 10 |
| NCCc1c[nH]c2ccc(-c3nc(N)no3)cc12 [Example 45, 2-[5-(5-(3-Amino-1,2,4-oxadiazol)-yl)-1H-indol-3-yl]ethylamine] | ≤ 10 |
| NCCc1c[nH]c2ccc(Cc3nc(Cc4ccccc4)no3)cc12 [Example 4] | ≤ 10 |
| CN(C)CCc1c[nH]c2ccc(Cc3nc(N4CCN(C(=O)OC(C)(C)C)CC4)no3)cc12 [Example 93, N,N-Dimethyl-2-[5-(5-(3-(4-^t-butyloxycarbonyl)piperazine-1,4-yl-1,2,4-oxadiazol)ylmethyl)-1H-indol-3-yl]ethylamine] | ≤ 10 |
| NCCc1c[nH]c2ccc(Cc3nc(N)no3)cc12 [Example 6] | ≤ 10 |
| CNS(=O)(=O)c1ccc(Cc2noc(Cc3ccc4[nH]cc(CCN(C)C)c4c3)n2)cc1 [Example 65, N,N-Dimethyl-2-[5-(5-(3-(4-methylaminosulphonylbenzyl)-1,2,4-oxadiazol)ylmethyl)-1H-indol-3-yl]ethylamine] | ≤ 10 |
| CN(C)CCc1c[nH]c2ccc(-c3nc(CCNC(=O)OC(C)(C)C)no3)cc12 [Example 53, N,N-dimethyl-2-[5-(5-(3-(2-t-butyloxycarbonylamino)ethyl-1,2,4-oxadiazol)yl)-1H-indol-3-yl]ethylamine] | ≤ 10 |
| CC(=O)Nc1ccc(Cc2noc(-c3ccc4[nH]cc(CCN(C)C)c4c3)n2)cc1 [Example 27, N,N-Dimethyl-2-[5-[5-(3-(4-Acetylaminobenzyl)-1,2,4-oxadiazol)yl]-1H-indol-3-yl]ethylamine] | ≤ 10 |
| CN(C)CCc1c[nH]c2ccc(-c3nc(Cc4ccc(NC(N)=O)cc4)no3)cc12 [Example 52, N,N-Dimethyl-2[5-(5-(3-(4-carbamoylaminobenzyl)-1,2,4-oxadiazol)yl)-1H-indol-3-yl]ethylamine] | ≤ 10 |
| CN(C)CCc1c[nH]c2ccc(Cc3nc(CNC(=O)c4ccccc4)no3)cc12 [Example 88, N,N-Dimethyl-2-[5-(5-(3-phenylcarboxamidomethyl-1,2,4-oxadiazol)ylmethyl)-1H-indol-3-yl]ethylamine] | ≤ 10 |
| NCCc1c[nH]c2ccc(-c3nc(Cc4ccc(NC(N)=O)cc4)no3)cc12 [Example 44, 2-[5-(5-(3-(4-Carbamoylaminobenzyl)-1,2,4-oxadiazol)yl)-1H-indol-3-yl]ethylamine] | ≤ 10 |
| NCCc1c[nH]c2ccc(-c3nc(Cc4ccccc4)no3)cc12 [Example 1, 2-[5-(5-(3-Benzyl-1,2,4-oxadiazol)-yl)-1H-indol-3-yl]ethylamine] | ≤ 10 |
| CN(C)CCc1c[nH]c2ccc(-c3nc(CCNS(C)(=O)=O)no3)cc12 [Example 56, N,N-dimethyl-2-[5-(5-(3-(2-methylsulphonylamino)ethyl-1,2,4-oxadiazol)yl)-1H-indol-3-yl]ethylamine] | ≤ 10 |
| CN(C)CCc1c[nH]c2ccc(Cc3nc(N)no3)cc12 [Example 30, N,N-Dimethyl-2-[5-[5-(3-Amino-1,2,4-oxadiazol)ylmethyl]-1H-indol-3-yl]ethylamine] | ≤ 10 |

Same assay, conditions: rabbit saphenous vein contraction; from plots of percentage 5-HT (1 μm) response against agonist concentration

| Structure (SMILES) | agonist potency -log10 EC50 (pEC50) |
| --- | --- |
| CN(C)CCc1c[nH]c2ccc(CCc3nc(N)no3)cc12 [Example 61, N,N-Dimethyl-2-[5-(2-(5-(3-amino-1,2,4-oxadiazol)yl)ethyl)-1H-indol-3-yl]ethylamine] | not less than 5.0 |
| CN(C)CCc1c[nH]c2ccc(-c3nc(Cc4ccc(NS(C)(=O)=O)cc4)no3)cc12 [Example 28, N,N-Dimethyl-2-[5-[5-(3-(4-Methylsulphonylaminobenzyl)-1,2,4-oxadiazol)yl]-1H-indol-3-yl]ethyl amine] | not less than 5.0 |

Same assay, conditions: rabbit saphenous vein contraction; from plots of percentage 5-HT (1 μm) response against agonist concentration; read-out: agonist potency -log10 EC50 (pEC50) (converted)

| Structure (SMILES) | EC50 [µM] |
| --- | --- |
| CN1CCC(c2c[nH]c3ccc(Cc4nc(N)no4)cc23)CC1 [Example 110, 4-[5-(3-Amino-1,2,4-oxadiazol-5-ylmethyl)-1H-indol-3-yl]N-methylpiperidine] | ≤ 10 |
